The values that follow come from PubChem BioAssay AID1259407 (Chemical Carcinogenesis Research Information System (CCRIS), 2018).

The data set relates to CCRIS mutagenicity, Ames/micronucleus/aberration tests. As to the kind of experiment: CCRIS mutagenicity studies.
Where [1] appears, read: Test System: AMES SALMONELLA TYPHIMURIUM, Strain/Indicator: TA1535, Metabolic Activation: NONE, Method: STANDARD PLATE.
The mark [2] stands for this setting: Test System: AMES SALMONELLA TYPHIMURIUM, Strain/Indicator: TA100, Metabolic Activation: NONE, Method: STANDARD PLATE.
Setting [3] is: Test System: AMES SALMONELLA TYPHIMURIUM, Strain/Indicator: TA98, Metabolic Activation: NONE, Method: STANDARD PLATE.
[4] abbreviates: Test System: AMES SALMONELLA TYPHIMURIUM, Strain/Indicator: TA102, Metabolic Activation: NONE, Method: STANDARD PLATE.
The mark [5] stands for this setting: Test System: AMES SALMONELLA TYPHIMURIUM, Strain/Indicator: TA100, Metabolic Activation: S-9, Method: STANDARD PLATE.
Where [6] appears, read: Test System: AMES SALMONELLA TYPHIMURIUM, Strain/Indicator: TA98, Metabolic Activation: RAT, LIVER, S-9, AROCLOR 1254, Method: STANDARD PLATE.
The mark [7] stands for this setting: Test System: AMES SALMONELLA TYPHIMURIUM, Strain/Indicator: TA100, Metabolic Activation: RAT, LIVER, S-9, AROCLOR 1254, Method: STANDARD PLATE.

SMILES strings stand for the structures. Activity calls are given as the source filed them. How the calls were made is not given here.

`CC(C)CN(N=O)/C(N)=N/[N+](=O)[O-]`: the mutagenic call reads like this: (Test System: AMES SALMONELLA TYPHIMURIUM, Strain/Indicator: TA100, Metabolic Activation: RAT, LIVER, S-9, KC500 OR PHENOBARBITAL, Method: LIQUID SUSPENSION) “active; positive”; under setting [1], “active; positive”; (Test System: AMES SALMONELLA TYPHIMURIUM, Strain/Indicator: TA1535, Metabolic Activation: RAT, LIVER, S-9, KC500 OR PHENOBARBITAL, Method: LIQUID SUSPENSION) “active; positive”.
For the compound `CNc1ccc2nc3ccc(=[N+](C)C)cc-3sc2c1`, the mutagenic call is, setting by setting: (Test System: Ames Salmonella typhimurium, Strain/Indicator: TA98, Metabolic Activation: None, Method: Preincubation) “active; positive”; (Test System: Ames Salmonella typhimurium, Strain/Indicator: TA98, Metabolic Activation: Rat, Liver, S-9, Aroclor 1254 (10%), Method: Preincubation) “active; positive”; (Test System: Ames Salmonella typhimurium, Strain/Indicator: TA100, Metabolic Activation: None, Method: Preincubation) “active; positive”; (Test System: Ames Salmonella typhimurium, Strain/Indicator: TA100, Metabolic Activation: Rat, Liver, S-9, Aroclor 1254 (10%), Method: Preincubation) “active; positive”; (Test System: E. coli, Strain/Indicator: WPM uvrA/pKM101, Metabolic Activation: None, Method: Preincubation) “active; positive”; (Test System: E. coli, Strain/Indicator: WPM uvrA/pKM101, Metabolic Activation: Rat, Liver, S-9, Aroclor 1254 (10%), Method: Preincubation) “active; positive”.
With `O[C@H]1C=Cc2ncccc2[C@@H]1O`, the mutagenic call under setting [2] was “inactive; negative” and the mutagenic call (Test System: AMES SALMONELLA TYPHIMURIUM, Strain/Indicator: TA100, Metabolic Activation: RAT, LIVER, S-9, AROCLOR 1254 (10 OR 20%), Method: STANDARD PLATE) is “inactive; negative”.
In the case of `c1ccc2cc3c(cc2c1)c1cccc2ccc4cccc3c4c21`, the mutagenic call (Test System: HUMAN H1A1V2 CELLS, Strain/Indicator: TK LOCUS, Metabolic Activation: NONE, Method: SUSPENSION/PLATE) is “active; positive”.
Regarding `CN1CCN(c2ccc3nc(-c4ccc5nc(-c6ccc(N(CCCl)CCCl)cc6)[nH]c5c4)[nH]c3c2)CC1`, the mutagenic call is “inactive; negative” under setting [3], “inactive; negative” under setting [2] and “inactive; negative” under setting [4].
In the case of `O=C(N=c1sn(C(=O)c2ccc([N+](=O)[O-])cc2)c2ccc([N+](=O)[O-])cc12)c1ccc([N+](=O)[O-])cc1`, the mutagenic call under setting [5] was “active; positive”.
`O=C1CCCCC1=O`: the mutagenic call under setting [2] is “active; positive”.
As for `CC(=O)Nc1ccc(Oc2c(Cl)cc(Cl)cc2Cl)cc1`, the mutagenic call is “inactive; negative” under setting [6]; “inactive; negative” (Test System: AMES SALMONELLA TYPHIMURIUM, Strain/Indicator: TA98, Metabolic Activation: S-9, Method: STANDARD PLATE); “inactive; negative” under setting [2]; “active; positive” under setting [7]; “active; positive” (Test System: AMES SALMONELLA TYPHIMURIUM, Strain/Indicator: TA100, Metabolic Activation: RAT, LIVER, S-9, KANECLOR 500, Method: STANDARD PLATE); “active; positive” under setting [5]. The mutagenic call is “inactive; negative” (Test System: AMES SALMONELLA TYPHIMURIUM, Strain/Indicator: YG1021, Metabolic Activation: RAT, LIVER, S-9, AROCLOR 1254, Method: STANDARD PLATE); “inactive; negative” (Test System: AMES SALMONELLA TYPHIMURIUM, Strain/Indicator: YG1021, Metabolic Activation: S-9, Method: STANDARD PLATE); “active; positive” (Test System: AMES SALMONELLA TYPHIMURIUM, Strain/Indicator: YG1024, Metabolic Activation: RAT, LIVER, S-9, AROCLOR 1254, Method: STANDARD PLATE); “active; positive” (Test System: AMES SALMONELLA TYPHIMURIUM, Strain/Indicator: YG1024, Metabolic Activation: S-9, Method: STANDARD PLATE); “active; positive” (Test System: AMES SALMONELLA TYPHIMURIUM, Strain/Indicator: YG1026, Metabolic Activation: RAT, LIVER, S-9, AROCLOR 1254, Method: STANDARD PLATE); “active; positive” (Test System: AMES SALMONELLA TYPHIMURIUM, Strain/Indicator: YG1026, Metabolic Activation: S-9, Method: STANDARD PLATE). Moreover, the mutagenic call by setting is: (Test System: AMES SALMONELLA TYPHIMURIUM, Strain/Indicator: YG1029, Metabolic Activation: RAT, LIVER, S-9, AROCLOR 1254, Method: STANDARD PLATE) “active; positive”; (Test System: AMES SALMONELLA TYPHIMURIUM, Strain/Indicator: YG1029, Metabolic Activation: S-9, Method: STANDARD PLATE) “active; positive”.
On to `COc1ccc([N+](=O)[O-])c2c(NCCCN(C)C)c3ccccc3nc12`, for which the mutagenic call runs as follows: under setting [3], “active; positive”; under setting [2], “inactive; negative”.
Turning to `O=NN(c1ccc([N+](=O)[O-])cc1)C1OC[C@@H](O)[C@H](O)[C@H]1O` (stereo partly specified), the mutagenic call under setting [2] was “active; positive”.
In the case of `COc1cc([C@@H]2c3cc4c(cc3[C@H](O)[C@H]3COC(=O)[C@H]23)OCO4)cc(OC)c1OC`, the mutagenic call runs as follows: (Test System: AMES SALMONELLA TYPHIMURIUM, Strain/Indicator: TA98, Metabolic Activation: HAMSTER, LIVER, S-9, AROCLOR 1254, Method: STANDARD PLATE) “inactive; negative”; under setting [3], “inactive; negative”; under setting [6], “inactive; negative”; (Test System: AMES SALMONELLA TYPHIMURIUM, Strain/Indicator: TA100, Metabolic Activation: HAMSTER, LIVER, S-9, AROCLOR 1254, Method: STANDARD PLATE) “inactive; negative”; under setting [2], “inactive; negative”; under setting [7], “inactive; negative”. For the same compound, the mutagenic call is “inactive; negative” under setting [4]; “inactive; negative” (Test System: AMES SALMONELLA TYPHIMURIUM, Strain/Indicator: TA102, Metabolic Activation: RAT, LIVER, S-9, AROCLOR 1254, Method: STANDARD PLATE); “inactive; negative” (Test System: AMES SALMONELLA TYPHIMURIUM, Strain/Indicator: TA1535, Metabolic Activation: HAMSTER, LIVER, S-9, AROCLOR 1254, Method: STANDARD PLATE); “inactive; negative” under setting [1]; “inactive; negative” (Test System: AMES SALMONELLA TYPHIMURIUM, Strain/Indicator: TA1535, Metabolic Activation: RAT, LIVER, S-9, AROCLOR 1254, Method: STANDARD PLATE); “inactive; negative” (Test System: AMES SALMONELLA TYPHIMURIUM, Strain/Indicator: TA1537, Metabolic Activation: HAMSTER, LIVER, S-9, AROCLOR 1254, Method: STANDARD PLATE). Besides, the mutagenic call by setting is: (Test System: AMES SALMONELLA TYPHIMURIUM, Strain/Indicator: TA1537, Metabolic Activation: NONE, Method: STANDARD PLATE) “inactive; negative”; (Test System: AMES SALMONELLA TYPHIMURIUM, Strain/Indicator: TA1537, Metabolic Activation: RAT, LIVER, S-9, AROCLOR 1254, Method: STANDARD PLATE) “inactive; negative”; (Test System: MOUSE LYMPHOMA, Strain/Indicator: L5178Y (TK+/TK-), Metabolic Activation: NONE, Method: SUSPENSION/PLATE) “inactive; negative. reevaluation of results: negative”; (Test System: MOUSE LYMPHOMA, Strain/Indicator: L5178Y (TK+/TK-), Metabolic Activation: RAT, LIVER, S-9, AROCLOR 1254, Method: SUSPENSION/PLATE) “inactive; negative. reevaluation of results: negative”.
Consider `Cc1ccc2ccc3ccc(C)cc3c2c1`, for which the mutagenic call (Test System: AMES SALMONELLA TYPHIMURIUM, Strain/Indicator: TA97, Metabolic Activation: NONE, Method: STANDARD PLATE) was “inactive; negative”; the mutagenic call (Test System: AMES SALMONELLA TYPHIMURIUM, Strain/Indicator: TA97, Metabolic Activation: RAT, LIVER, S-9, PCB, Method: STANDARD PLATE) is “inactive; negative”; the mutagenic call under setting [3] is “inactive; negative”; the mutagenic call (Test System: AMES SALMONELLA TYPHIMURIUM, Strain/Indicator: TA98, Metabolic Activation: RAT, LIVER, S-9, PCB, Method: STANDARD PLATE) is “active; positive”; the mutagenic call under setting [2] was “inactive; negative”; the mutagenic call (Test System: AMES SALMONELLA TYPHIMURIUM, Strain/Indicator: TA100, Metabolic Activation: RAT, LIVER, S-9, PCB, Method: STANDARD PLATE) is “inactive; negative”.
